Legend:
[1] = target: T1, Alpha-1A adrenergic receptor (Rattus norvegicus, UniProt P43140); assay: DRUGMATRIX: Alpha-1A adrenergic receptor radioligand binding (ligand: prazosin); type: cell membranes, Wistar, Submaxillary gland, Membrane; conditions: Not Active = under 50% inhibition at 10 µM
T1 sequence (P43140 whole entry): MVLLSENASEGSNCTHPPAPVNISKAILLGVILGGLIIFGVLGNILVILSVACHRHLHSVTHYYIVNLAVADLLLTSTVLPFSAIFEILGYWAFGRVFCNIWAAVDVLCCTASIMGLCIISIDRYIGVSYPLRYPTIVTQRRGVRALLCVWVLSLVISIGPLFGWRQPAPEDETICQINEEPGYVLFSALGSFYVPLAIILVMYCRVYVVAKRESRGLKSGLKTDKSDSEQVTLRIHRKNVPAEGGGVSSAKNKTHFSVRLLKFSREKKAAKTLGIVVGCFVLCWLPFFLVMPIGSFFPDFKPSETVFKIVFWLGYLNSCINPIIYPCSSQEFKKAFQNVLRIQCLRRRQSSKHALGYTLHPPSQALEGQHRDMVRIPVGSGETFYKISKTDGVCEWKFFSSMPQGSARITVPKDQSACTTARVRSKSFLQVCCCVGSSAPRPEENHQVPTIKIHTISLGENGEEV

[2] = DRUGMATRIX: GABAA, Muscimol, Central radioligand binding (ligand: [3H] Muscimol); type: cell membranes, Rattus norvegicus, Wistar, Brain, Membrane; conditions: Not Active = under 50% inhibition at 10 µM
[3] = DRUGMATRIX: GABAA, Flunitrazepam, Central radioligand binding (ligand: [3H] Flunitrazepam); type: cell membranes, Rattus norvegicus, Wistar, Brain, Membrane; conditions: Not Active = under 50% inhibition at 10 µM
[4] = target: Glycine receptor (Rattus norvegicus, UniProt P22771+P24524+P07727+P20781); type: cell membranes, Wistar, Spinal cord, Membrane; also: in other assays of this panel Not Active means under 50% inhibition at 10 µM
[5] = target: Histamine H2 receptor (Homo sapiens, UniProt P25021); type: cell membranes, CHO-K1, Membrane; also: in other assays of this panel Not Active means under 50% inhibition at 10 µM
Sequence of Histamine H2 receptor (P25021 whole entry): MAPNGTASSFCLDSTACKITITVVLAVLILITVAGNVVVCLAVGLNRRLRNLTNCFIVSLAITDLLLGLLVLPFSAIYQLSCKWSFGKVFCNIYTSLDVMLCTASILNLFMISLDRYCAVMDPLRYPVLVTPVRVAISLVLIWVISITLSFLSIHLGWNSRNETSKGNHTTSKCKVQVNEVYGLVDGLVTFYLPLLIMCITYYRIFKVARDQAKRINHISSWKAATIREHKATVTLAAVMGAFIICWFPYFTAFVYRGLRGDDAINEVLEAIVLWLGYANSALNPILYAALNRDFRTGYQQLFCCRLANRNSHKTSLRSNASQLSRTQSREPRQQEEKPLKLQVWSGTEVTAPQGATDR

[6] = target: T2, Muscarinic acetylcholine receptor M2 (Homo sapiens, UniProt P08172); type: cell membranes, CHO-K1, Membrane; conditions: for Ki: read-out: Ki; as to all read-outs here: in other assays of this panel Not Active means under 50% inhibition at 10 µM
T2 sequence (P08172 whole entry): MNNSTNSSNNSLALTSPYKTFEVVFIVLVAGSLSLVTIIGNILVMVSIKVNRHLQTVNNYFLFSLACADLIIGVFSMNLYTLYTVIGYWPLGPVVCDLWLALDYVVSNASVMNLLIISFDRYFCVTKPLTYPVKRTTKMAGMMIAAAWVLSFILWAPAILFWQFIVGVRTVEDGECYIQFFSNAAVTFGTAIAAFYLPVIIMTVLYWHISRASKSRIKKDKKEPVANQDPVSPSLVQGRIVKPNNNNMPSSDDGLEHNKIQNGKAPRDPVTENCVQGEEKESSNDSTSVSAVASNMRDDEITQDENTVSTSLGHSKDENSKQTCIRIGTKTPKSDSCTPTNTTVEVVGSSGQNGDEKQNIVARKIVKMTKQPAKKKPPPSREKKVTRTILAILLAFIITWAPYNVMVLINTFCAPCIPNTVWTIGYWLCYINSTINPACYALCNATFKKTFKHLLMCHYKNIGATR

Compound | IC50 [1] | IC50 [2] | Ki [2] | IC50 [3] | Ki [3] | IC50 [4] | IC50 ([5]; cho-k1) | IC50 ([6]; cho-k1) | IC50 ([5]; read-out: IC50) [µM] | Ki ([5]; read-out: Ki) [µM] | IC50 ([6]; read-out: IC50) [µM] | Ki [6] [µM] | IC50 ([1]; read-out: IC50) [µM] | Ki ([1]; read-out: Ki) [µM]
C[C@@H]1C[C@H]2[C@@H]3CCC4=CC(=O)C=C[C@]4(C)[C@@]3(F)[C@@H](O)C[C@]2(C)[C@H]1C(=O)CO [DESOXIMETASONE] | Not Active | Not Active | Not Active | Not Active | Not Active | Not Active | Not Active | Not Active |  |  |  |  |  | 
C[C@@H]1C[C@H]2[C@@H]3CCC4=CC(=O)C=C[C@]4(C)[C@@]3(F)[C@@H](O)C[C@]2(C)[C@@]1(O)C(=O)CO [DEXAMETHASONE] | Not Active | Not Active | Not Active | Not Active | Not Active | Not Active | Not Active | Not Active |  |  |  |  |  | 
CN(C)CC[C@@H](c1ccc(Cl)cc1)c1ccccn1 [DEXCHLORPHENIRAMINE] | Not Active | Not Active | Not Active | Not Active | Not Active | Not Active |  |  | 8.37 | 8.23 | 6.99 | 2.49 |  | 
C[C@@H]1CC[C@@]2(OC1)O[C@H]1[C@@H](O)[C@H]3[C@@H]4CC[C@H]5C[C@@H](O[C@@H]6O[C@H](CO)[C@H](O[C@@H]7O[C@H](CO)C(O)[C@H](O[C@@H]8OC[C@@H](O)[C@H](O)[C@H]8O)[C@H]7O[C@@H]7O[C@H](CO)[C@H](O)[C@H](O[C@@H]8O[C@H](CO)[C@@H](O)[C@H](O)[C@H]8O)[C@H]7O)[C@H](O)[C@H]6O)[C@H](O)C[C@]5(C)[C@H]4CC[C@]3(C)[C@H]1[C@@H]2C (stereo partly drawn) [DIGITONIN] | Not Active | Not Active | Not Active | Not Active | Not Active | Not Active | Not Active | Not Active |  |  |  |  |  | 
OC(CCCN1CCCCC1)(c1ccccc1)c1ccccc1 [DIPHENIDOL] | Not Active | Not Active | Not Active | Not Active | Not Active | Not Active | Not Active |  |  |  | 0.77 | 0.274 |  | 
C[C@H]1O[C@@H](n2cc(F)c(=O)[nH]c2=O)[C@H](O)[C@@H]1O [DOXIFLURIDINE] | Not Active | Not Active | Not Active | Not Active | Not Active | Not Active | Not Active | Not Active |  |  |  |  |  | 
Cn1c(=O)c2c(ncn2CC(O)CO)n(C)c1=O (stereo not drawn) [DYPHYLLINE] | Not Active | Not Active | Not Active | Not Active | Not Active | Not Active | Not Active | Not Active |  |  |  |  |  | 
CC[C@H]1CN2CCc3cc(OC)c(OC)cc3[C@@H]2C[C@@H]1C[C@H]1NCCc2cc(OC)c(OC)cc21 [EMETINE] |  | Not Active | Not Active | Not Active | Not Active | Not Active | Not Active | Not Active |  |  |  |  | 6.53 | 2.64
C[C@@H](CO)NC(=O)[C@@H]1C=C2c3cccc4[nH]cc(c34)C[C@H]2N(C)C1 [ERGONOVINE] | Not Active | Not Active | Not Active | Not Active | Not Active | Not Active | Not Active | Not Active |  |  |  |  |  | 
COC(=O)CCc1ccc(OCC(O)CNC(C)C)cc1 (stereo not drawn) [ESMOLOL] | Not Active | Not Active | Not Active | Not Active | Not Active | Not Active | Not Active | Not Active |  |  |  |  |  | 
CCC1(C)CC(=O)NC1=O (stereo not drawn) [ETHOSUXIMIDE] | Not Active | Not Active | Not Active | Not Active | Not Active | Not Active | Not Active | Not Active |  |  |  |  |  | 
C#C[C@]1(OC(C)=O)CC[C@H]2[C@@H]3CCC4=C[C@@H](OC(C)=O)CC[C@@H]4[C@H]3CC[C@@]21C [ETHYNODIOL DIACETATE] | Not Active | Not Active | Not Active | Not Active | Not Active | Not Active | Not Active | Not Active |  |  |  |  |  | 
COc1cc([C@@H]2c3cc4c(cc3[C@@H](O[C@@H]3O[C@@H]5CO[C@@H](C)O[C@H]5[C@H](O)[C@H]3O)[C@H]3COC(=O)[C@H]23)OCO4)cc(OC)c1O [ETOPOSIDE] | Not Active | Not Active | Not Active | Not Active | Not Active | Not Active | Not Active | Not Active |  |  |  |  |  | 

Reference: ChEMBL document CHEMBL1909046, “DrugMatrix in vitro pharmacology data”
